# Assay results as given in ChEMBL document CHEMBL1132888, “4,10-Dihydro-4-oxo-4H-imidazo[1,2-a]indeno[1,2-e]pyrazin-2-carboxylic acid derivatives: highly potent and selective AMPA receptors antagonists with in vivo activity” (Bioorg Med Chem Lett, 2000).
# The source made the active and inactive calls. No cut-off for these calls is given here.
# Legend:
# Mus musculus [1] = experiment: Effective dose of the intraperitoneally administered compound required to protect 50% of mice from tonic convulsion caused by maximal electric shock (MES); assay type: functional; conditions: ip
# Glutamate NMDA receptor = experiment: Displacement of [3H]DCKA from N-methyl-D-aspartate glutamate receptor of rat cortical membrane
# [2] = target: Glutamate receptor ionotropic, AMPA (Rattus norvegicus, UniProt P19490+P19491+P19492+P19493)
# Description: Displacement of [3H]AMPA from Ionotropic glutamate receptor AMPA of rat cortical membranes
# [3] = target: Glutamate receptor ionotropic, kainate; conditions: oocyte
# Mus musculus [4] = experiment: Effective dose of the intraperitoneally administered compound required to protect 50% of DBA/2 mice from tonico-clonic convulsion; assay type: functional; conditions: ip
# [5] = target: Glutamate receptor ionotropic, kainate (Rattus norvegicus) (UniProt P22756+Q01812+P42260+P42264+Q63273); experiment: Inhibitory activity against generation of currents by 50 uM kainate in Xenopus oocytes injected with rat brain mRNA; assay type: functional, cell-based; conditions: Oocyte
# Mus musculus [6] = experiment: Compound tested for sound induced convulsions in DBA/2 mice following ip administration; Compound was active; assay type: functional, organism-based
SMILES,IC50 (Glutamate NMDA receptor),IC50 [2],IC50 [3],Kb [5],ED50 (Mus musculus [1]),ED50 (Mus musculus [4]),Activity (Mus musculus [6])
CN1CCCC12c1ccccc1-c1nc(O)c3nccn3c12 (racemic),,,890 nM,,17 mg/kg,,
O=c1[nH]c2cc(-n3ccnc3)c([N+](=O)[O-])cc2[nH]c1=O [YM-90K],,,260 nM,,12 mg/kg,15 mg/kg,
NS(=O)(=O)c1cccc2c1c([N+](=O)[O-])cc1nc(O)c(O)nc12 [NBQX],> 10000 nM,,,,36 mg/kg,13 mg/kg,
Oc1nc2c(n3ccnc13)Cc1ccccc1-2,,,1800 nM,,62 mg/kg,,
CCOC(=O)c1cn2c3c(nc(O)c2n1)-c1ccc(F)cc1C3,,55 nM,,,> 80 mg/kg,,
CCOC(=O)c1cn2c3c(nc(O)c2n1)-c1ccccc1C3,198 nM,210 nM,350 nM,,> 80 mg/kg,> 80 mg/kg,
CNC(=O)Nc1ccc2c(c1)Cc1c-2nc(O)c2nc(C(=O)O)cn12,4330 nM,9 nM,,3.92 nM,0.7 mg/kg,0.5 mg/kg,Active
NC(=O)c1cn2c3c(nc(O)c2n1)-c1ccccc1C3,730 nM,476 nM,1250 nM,,> 80 mg/kg,,

# Further lines, with some results ahead:
IC50 (Glutamate NMDA receptor),IC50 [2],IC50 [3],Kb [5],SMILES,ED50 (Mus musculus [1]),ED50 (Mus musculus [4]),Activity (Mus musculus [6])
6900 nM,473 nM,236 nM,,Nc1ccc2c(c1)Cc1c-2nc(O)c2nc(C(=O)O)cn12,80 mg/kg,,
10000 nM,9 nM,6 nM,,CCOC(=O)c1cn2c3c(nc(O)c2n1)-c1ccc(NC(=O)NC)cc1C3,> 80 mg/kg,> 20 mg/kg,
,,230 nM,,O=C(O)[C@@H]1C[C@H]2C[C@@H](CCc3nn[nH]n3)CC[C@H]2CN1 [TEZAMPANEL ANHYDROUS],4 mg/kg,,
10000 nM,,2 nM,,CNC(=O)Nc1ccc2c(c1)C(CC(=O)O)c1c-2nc(O)c2nccn12 (racemic),1 mg/kg,0.9 mg/kg,
455 nM,60 nM,25 nM,,O=C(O)c1cn2c3c(nc(O)c2n1)-c1ccc(F)cc1C3,56 mg/kg,,
,150 nM,30 nM,,O=C(O)c1cn2c3c(nc(O)c2n1)-c1ccccc1C3,50 mg/kg,20 mg/kg,
